From ChEMBL document CHEMBL5500393, “Discovery and Optimization of Novel SaFabI Inhibitors as Specific Therapeutic Agents for MRSA Infection” (J Med Chem, 2024)
In brackets after ≈: the same amount, converted by molar mass. Activity calls are given as the source filed them. The rule behind the calls is not given here.

How the values were obtained:
[1] = AUC (0 to t) in female Sprague-Dawley rat at 5 mg/kg, iv measured upto 24 hrs by LC-MS analysis; assay type: ADME, organism-based; conditions: in vivo
Staphylococcus aureus [2] = assay: Antimicrobial activity against […] Staphylococcus aureus NRS271 measured after 24 hrs by CLSI protocol based microdilution method; assay type: functional
Staphylococcus aureus [3] = assay: Antimicrobial activity against methicillin-susceptible Staphylococcus aureus ATCC25923 measured after 24 hrs by CLSI protocol based microdilution method; assay type: functional
Staphylococcus aureus [4] = assay: Antimicrobial activity against Staphylococcus aureus RN4220 harbouring pCM-sfgfp::fabi (promoter fabi) measured after 24 hrs by CLSI protocol based microdilution method; assay type: functional
Staphylococcus aureus [5] = assay: Antimicrobial activity against Staphylococcus aureus RN4220 harbouring pCM-sfgfp measured after 24 hrs by CLSI protocol based microdilution method; assay type: functional
[6] = Metabolic stability in human liver microsomes assessed as intrinsic clearance at 1 uM measured upto 120 mins in presence of NADPH by LC-MS analysis; assay type: ADME, Microsome; conditions: read-out: CLH
[7] = Metabolic stability in human liver microsomes assessed as half life at 1 uM measured upto 120 mins in presence of NADPH by LC-MS analysis; assay type: ADME, Microsome
Staphylococcus aureus [8] = assay: Antimicrobial activity against wild type Staphylococcus aureus RN4220 measured after 24 hrs by CLSI protocol based microdilution method; assay type: functional
Pseudomonas aeruginosa = assay: Antimicrobial activity against Pseudomonas aeruginosa PAO1 measured after 24 hrs by CLSI protocol based microdilution method; assay type: functional
Staphylococcus aureus [9] = assay: In vivo antibacterial activity against methicilin-resistant Staphylococcus aureus ATCC33591 infected in BALB/c mouse skin infection model assessed as decrease in lesion size at 5 mg/kg administered daily for 4 days (reference value: 43.4 mm2); assay type: functional; conditions: time 4 day
[10] = Oral bioavailability in female Sprague-Dawley rat at 20 mg/kg measured upto 24 hrs by LC-MS analysis; assay type: ADME, organism-based; conditions: in vivo
[11] = Half life in female Sprague-Dawley rat at 20 mg/kg, po measured upto 24 hrs by LC-MS analysis; assay type: ADME, organism-based; conditions: in vivo
Staphylococcus aureus [12] = assay: Antimicrobial activity against […] Staphylococcus aureus USA300 measured after 24 hrs by CLSI protocol based microdilution method; assay type: functional
[13] = Half life in female Sprague-Dawley rat at 5 mg/kg, iv measured upto 24 hrs by LC-MS analysis; assay type: ADME, organism-based; conditions: in vivo
[14] = Metabolic stability in mouse liver microsomes assessed as half life at 1 uM measured upto 120 mins in presence of NADPH by LC-MS analysis; assay type: ADME, Microsome
Staphylococcus aureus [15] = assay: In vivo antibacterial activity against methicilin-resistant Staphylococcus aureus ATCC33591 infected in BALB/c mouse skin infection model assessed as reduction in area of injury at 5 mg/kg administered daily for 4 days by H and E staining based analysis; assay type: functional, organism-based; conditions: time 4.0 day
Staphylococcus aureus [16] = assay: Antimicrobial activity against […] Staphylococcus aureus ATCC33591 measured after 24 hrs by CLSI protocol based microdilution method; assay type: functional
Staphylococcus aureus [17] = assay: In vivo antibacterial activity against methicilin-resistant Staphylococcus aureus ATCC33591 infected in BALB/c mouse skin infection model assessed as log reduction in bacterial count at 5 mg/kg administered daily for 4 days; assay type: functional; conditions: time 4 day
Staphylococcus aureus [18] = assay: In vivo antibacterial activity against methicilin-resistant Staphylococcus aureus ATCC33591 infected in BALB/c mouse skin infection model assessed as normal morphology at 5 mg/kg administered daily for 4 days by H and E staining based analysis; assay type: functional, organism-based; conditions: time 4.0 day
[19] = Cmax in female Sprague-Dawley rat at 5 mg/kg, iv measured upto 24 hrs by LC-MS analysis; assay type: ADME, organism-based; conditions: in vivo
Acinetobacter baumannii = assay: Antimicrobial activity against Acinetobacter baumannii ATCC19606 measured after 24 hrs by CLSI protocol based microdilution method; assay type: functional
Staphylococcus aureus [20] = assay: Antimicrobial activity against methicillin-susceptible Staphylococcus aureus ATCC29213 measured after 24 hrs by CLSI protocol based microdilution method; assay type: functional
Candida albicans = assay: Antimicrobial activity against Candida albicans SC5314 measured after 48 hrs by CLSI protocol based microdilution method; assay type: functional
Staphylococcus aureus [21] = assay: Bactericidal activity against […] Staphylococcus aureus ATCC33591 assessed as log reduction in bacterial count measured within 24 hrs by time-kill assay; assay type: functional
Enterococcus faecium = assay: Antimicrobial activity against Enterococcus faecium ATCC19434 measured after 24 hrs by CLSI protocol based microdilution method; assay type: functional
[22] = biological target: T1, Enoyl-[acyl-carrier-protein] reductase [NADPH] FabI (Staphylococcus aureus, UniProt Q6GI75); assay: Inhibition of N-terminal his 6 tagged Staphylococcus aureus Fabi (1 to […] residues) expressed in Escherichia coli BL21 incubated for 30 mins in presence of NADPH by fluorescence based microplate reader analysis
T1 sequence (Q6GI75 whole entry): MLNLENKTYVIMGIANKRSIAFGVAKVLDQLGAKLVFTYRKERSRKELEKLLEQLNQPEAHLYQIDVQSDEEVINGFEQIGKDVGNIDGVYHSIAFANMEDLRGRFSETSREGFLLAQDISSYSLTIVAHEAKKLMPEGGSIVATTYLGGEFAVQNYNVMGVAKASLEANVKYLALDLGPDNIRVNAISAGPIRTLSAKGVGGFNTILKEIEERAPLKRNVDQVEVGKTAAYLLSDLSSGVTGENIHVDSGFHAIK

Enterococcus faecalis = assay: Antimicrobial activity against Enterococcus faecalis ATCC29212 measured after 24 hrs by CLSI protocol based microdilution method; assay type: functional
[23] = Tmax in female Sprague-Dawley rat at 20 mg/kg, po measured upto 24 hrs by LC-MS analysis; assay type: ADME, organism-based; conditions: in vivo
Escherichia coli = assay: Antimicrobial activity against Escherichia coli ATCC25922 measured after 24 hrs by CLSI protocol based microdilution method; assay type: functional
Staphylococcus aureus [24] = assay: In vivo antibacterial activity against methicilin-resistant Staphylococcus aureus ATCC33591 infected in BALB/c mouse skin infection model assessed as normal skin structure at 5 mg/kg administered daily for 4 days by H and E staining based analysis; assay type: functional, organism-based; conditions: time 4.0 day
Staphylococcus aureus [25] = assay: In vivo antibacterial activity against methicilin-resistant Staphylococcus aureus ATCC33591 infected in BALB/c mouse skin infection model assessed as reduction in skin lesions at 5 mg/kg administered daily for 4 days (reference value: 50.1 mm2); assay type: functional; conditions: time 4 day
[26] = Cmax in female Sprague-Dawley rat at 20 mg/kg, po measured upto 24 hrs by LC-MS analysis; assay type: ADME, organism-based; conditions: in vivo
Staphylococcus aureus [27] = assay: In vivo antibacterial activity against methicilin-resistant Staphylococcus aureus ATCC33591 infected in BALB/c mouse skin infection model assessed as reduction in bacterial load at 5 mg/kg administered daily for 4 days; assay type: functional; conditions: time 4 day
Staphylococcus aureus [28] = assay: In vivo antibacterial activity against methicilin-resistant Staphylococcus aureus ATCC33591 infected in BALB/c mouse skin infection model assessed as restoration of cell morphology at 5 mg/kg administered daily for 4 days by H and E staining based analysis; assay type: functional, organism-based; conditions: time 4.0 day
Staphylococcus aureus [29] = assay: Antimicrobial activity against Staphylococcus aureus RN4220 harbouring pCM-sfgfp::fabi (promoter-sarA) measured after 24 hrs by CLSI protocol based microdilution method; assay type: functional
Staphylococcus aureus [30] = assay: Antimicrobial activity against […] Staphylococcus aureus ATCC33591 assessed as frequency of spontaneous resistance at 8 times MIC measured after 48 hrs by; assay type: functional
Staphylococcus aureus [31] = assay: Antimicrobial activity against […] Staphylococcus aureus ATCC43300 measured after 24 hrs by CLSI protocol based microdilution method; assay type: functional
[32] = Clearance in female Sprague-Dawley rat at 5 mg/kg, iv measured upto 24 hrs by LC-MS analysis; assay type: ADME, organism-based; conditions: in vivo
[33] = AUC (0 to t) in female Sprague-Dawley rat at 20 mg/kg, po measured upto 24 hrs by LC-MS analysis; assay type: ADME, organism-based; conditions: in vivo
Staphylococcus aureus [34] = assay: Antimicrobial activity against […] Staphylococcus aureus ATCC33591 assessed as reduction in lipid content measured after 4 hrs by microplate reader based analysis; assay type: functional
Staphylococcus aureus [35] = assay: In vivo antibacterial activity against methicilin-resistant Staphylococcus aureus ATCC33591 infected in BALB/c mouse skin infection model assessed as reduction in number of inflammatory cells at 5 mg/kg administered daily for 4 days by H and E staining based analysis; assay type: functional, organism-based; conditions: time 4.0 day
Staphylococcus aureus [36] = assay: Antimicrobial activity against […] Staphylococcus aureus ATCC33591 assessed as frequency of spontaneous resistance at 16 times MIC measured after 48 hrs by; assay type: functional
[37] = Metabolic stability in mouse liver microsomes assessed as intrinsic clearance at 1 uM measured upto 120 mins in presence of NADPH by LC-MS analysis; assay type: ADME, Microsome; conditions: read-out: CLH
Staphylococcus aureus [38] = assay: Antimicrobial activity against […] Staphylococcus aureus ATCC33591 assessed as frequency of spontaneous resistance at 4 times MIC measured after 48 hrs by; assay type: functional
[39] = Clearance in female Sprague-Dawley rat at 20 mg/kg, po measured upto 24 hrs by LC-MS analysis; assay type: ADME, organism-based; conditions: in vivo

## Cc1c(CN(C)C(=O)/C=C/c2cnc3c(c2)CCC(=O)N3)oc2ccccc12 [AFN-1252]
[1]
  AUCt: 2713.1 ng·h/mL
Staphylococcus aureus [2]
  MIC: 0.016 µg/mL (≈ 0.0426 µM)
Staphylococcus aureus [3]
  MIC: 0.008 µg/mL (≈ 0.0213 µM)
Staphylococcus aureus [4]
  MIC: 0.25 µg/mL (≈ 0.666 µM)
Staphylococcus aureus [5]
  MIC: 0.016 µg/mL (≈ 0.0426 µM)
[6]
  CLint scaled at 1 µM: 50.4 mL/min/kg
[7]
  half-life at 1 µM: 34.5 min
Staphylococcus aureus [8]
  MIC: 0.016 µg/mL (≈ 0.0426 µM)
Pseudomonas aeruginosa
  MIC: > 32 µg/mL
Staphylococcus aureus [9]
  Activity: 10.4 mm2
[10]
  bioavailability: 40.7%
[11]
  t1/2: 432 min
Staphylococcus aureus [12]
  MIC: 0.016 µg/mL (≈ 0.0426 µM)
[13]
  t1/2: 402 min
[14]
  half-life at 1 µM: 17.1 min
Staphylococcus aureus [15]
  Activity: Active
Staphylococcus aureus [16]
  MIC: 0.008 µg/mL (≈ 0.0213 µM)
Staphylococcus aureus [17]
  log(activity): 7.8
Staphylococcus aureus [18]
  Activity: Active
[19]
  Cmax: 1810 ng/mL
Acinetobacter baumannii
  MIC: > 32 µg/mL
Staphylococcus aureus [20]
  MIC: 0.008 µg/mL (≈ 0.0213 µM)
Candida albicans
  MIC: > 32 µg/mL
Staphylococcus aureus [21]
  log(activity): 5
Enterococcus faecium
  MIC: > 32 µg/mL
[22]
  IC50: 42.3 nM
Enterococcus faecalis
  MIC: > 32 µg/mL
[23]
  Tmax: 60 min
Escherichia coli
  MIC: > 32 µg/mL
Staphylococcus aureus [24]
  Activity: Active
Staphylococcus aureus [25]
  Activity: 13.7 mm2
[26]
  Cmax: 711 ng/mL
Staphylococcus aureus [27]
  log(activity): -7.1
Staphylococcus aureus [28]
  Activity: Active
Staphylococcus aureus [29]
  MIC: 1 µg/mL (≈ 2.66 µM)
Staphylococcus aureus [30]
  Activity: 5.9 10^-10No_unit
Staphylococcus aureus [31]
  MIC: 0.016 µg/mL (≈ 0.0426 µM)
[32]
  clearance: 30 mL/min/kg
[33]
  AUCt: 4414.1 ng·h/mL
Staphylococcus aureus [34]
  MIC: 0.008 µg/mL (≈ 0.0213 µM)
Staphylococcus aureus [35]
  Activity: Active
Staphylococcus aureus [36]
  Activity: <2.6 10^-10No_unit
[37]
  CLint scaled at 1 µM: 319 mL/min/kg
Staphylococcus aureus [38]
  Activity: 1.6 10^-9No_unit
[39]
  CL/F: 71.7 mL/min/kg
